Values after ≈ are worked out from the molar mass of the structure shown. Like-named read-outs stand apart in the source and are kept apart here.
What was measured:
[1] = Solubility check in organic oil solutions (78% oil, 20% benzyl benzoate, 2% benzyl alcohol); format: physicochemical; details: 25 °C; for solubility: oil or lipid, thermodynamic from solid, average of three; for solubility compared among the four esters (in words): oil solutions, comparison with the acetate ester
Protocol: The solubility for the four esters (mg/mL) was measured in solutions of various organic oils: medium-chain triglyceride (MCT), grape seed oil (GSO), castor oil, cottonseed oil, apricot oil, and sesame oil.
Each solution was composed of a mixture of benzyl benzoate, benzyl alcohol, and oil having a volumetric ratio of 78% oil, 20% benzyl benzoate, and 2% benzyl alcohol. In various pharmaceutical preparations of lipophilic compounds, including various steroids, benzyl benzoate is used as a solubiliser (co-solvent), benzyl alcohol acts as a solvent and at the same time prevents microbial growth and increases the lipid solubility of various esterified compounds, while the oils are used as carriers.
In order to obtain good accuracy, three such procedures were carried out, and their average was used.

[2] = cited from earlier work
[3] = design: method as in PMID 8095531; details: microemulsion study, cited from earlier work
[4] = apricot oil / benzyl benzoate / benzyl alcohol solution, apricot oil 78% / benzyl benzoate 20% / benzyl alcohol 2%, read-out: Solubility APRICOT
[5] = castor oil / benzyl benzoate / benzyl alcohol solution, castor oil 78% / benzyl benzoate 20% / benzyl alcohol 2%, read-out: Solubility CASTOR
[6] = cottonseed oil / benzyl benzoate / benzyl alcohol solution, cottonseed oil 78% / benzyl benzoate 20% / benzyl alcohol 2%, read-out: Solubility COTTON
[7] = grape seed oil / benzyl benzoate / benzyl alcohol solution, grape seed oil 78% / benzyl benzoate 20% / benzyl alcohol 2%, read-out: Solubility GSO
[8] = medium-chain triglyceride 78% / benzyl benzoate 20% / benzyl alcohol 2%, read-out: Solubility MCT
[9] = sesame oil / benzyl benzoate / benzyl alcohol solution, sesame oil 78% / benzyl benzoate 20% / benzyl alcohol 2%, read-out: Solubility SESAME
[10] = esterified forms of testosterone, intramuscular injections

SMILES: CC(=O)OC1CCC2C3CCC4=CC(=O)CCC4(C)C3CCC12C (stereo not drawn) [TAce, Androst-4-en-17β-ol-3-one 17β-acetate]
- solubility [1, 4]: 82.5 mg/mL (≈ 250 mM)
- solubility [1, 5]: 162 mg/mL (≈ 491 mM)
- solubility [1, 6]: 98.8 mg/mL (≈ 299 mM)
- solubility [1, 7]: 98.8 mg/mL (≈ 299 mM)
- solubility [1, 8]: 120 mg/mL (≈ 365 mM)
- solubility compared among the four esters (in words) [1]: lowest solubility
- solubility [1, 9]: 99 mg/mL (≈ 300 mM)
- Half-life (days) ([2]; column of Table S2): less than one day
- half-life [2, 10]: less than 1 days

SMILES: CC(C)CCC(=O)OC1CCC2C3CCC4=CC(=O)CCC4(C)C3CCC12C (stereo not drawn) [TIso, Androst-4-en-17β-ol-3-one 17β-4-methylpentanoate]
- solubility compared among the four esters (in words) [1]: roughly four-fold greater solubility
- half-life [2, 10]: 74.4 h

SMILES: CC12CCC(=O)C=C1CCC1C2CCC2(C)C(OC(=O)CCc3ccccc3)CCC12 (stereo not drawn) [TPhp, Androst-4-en-17β-ol-3-one 17β-phenylpropionate]
- half-life [2, 10]: 60 h

SMILES: CCC(=O)O[C@H]1CC[C@H]2[C@@H]3CCC4=CC(=O)CC[C@]4(C)[C@H]3CC[C@]12C [TPro, Androst-4-en-17β-ol-3-one 17β-propionate]
- solubility [1, 4]: 127 mg/mL (≈ 370 mM)
- solubility [1, 5]: 194 mg/mL (≈ 564 mM)
- solubility [1, 6]: 174 mg/mL (≈ 505 mM)
- solubility [1, 7]: 152 mg/mL (≈ 442 mM)
- solubility [1, 8]: 185 mg/mL (≈ 538 mM)
- solubility [1, 9]: 189 mg/mL (≈ 548 mM)
- half-life ([2]; column of Table S2): 24 h
- half-life [2, 10]: 24 h
- concentration obtained in dimethoxytetraethylene glycol [3]: 12000 µg/mL
- concentration supported in soybean oil [3]: 3420 µg/mL

SMILES: CC(=O)O[C@]1(C(C)=O)CC[C@H]2[C@@H]3C[C@H](C)C4=CC(=O)CC[C@]4(C)[C@H]3CC[C@@]21C [medroxyprogesterone acetate]
- concentration obtained in dimethoxytetraethylene glycol [3]: 1320 µg/mL
- concentration supported in soybean oil [3]: 2160 µg/mL

SMILES: C[C@]12CC[C@H]3[C@@H](CCC4=CC(=O)CC[C@@]43C)[C@@H]1CC[C@@H]2O [testosterone base, 17β-hydroxyandrost-4-en-3-one]
- half-life ([2]; testosterone base (no ester)): a few hours

SMILES: CCCCCCC(=O)O[C@H]1CC[C@H]2[C@@H]3CCC4=CC(=O)CC[C@]4(C)[C@H]3CC[C@]12C [testosterone enanthate]
- concentration obtained in dimethoxytetraethylene glycol [3]: 91200 µg/mL
- concentration supported in soybean oil [3]: 31500 µg/mL
